3 molecules from patent US11918013B2, “Composition for inactivation of gram-positive bacteria and bacterial spores and methods of making and using same” (RESORCIX LTD., priority 2018, dated 2024) can be followed below.

≈ marks a conversion by molar mass, not a printed value. Where two headings read alike, the source gives them in different places.

This assay deals with Alicyclobacillus acidoterrestris (JCM catalogue number 21547, IAM Culture Collection no. 15086). Put plainly: MIC against Alicyclobacillus acidoterrestris in apple juice (OD600 and CFU counting). In kind it is cell-based. Conditions: 37° C.; for MIC: Alicyclobacillus acidoterrestris, 100% apple juice. The protocol:
The fractions collected in Example 4, as well as Fraction 1 and nisin, a preservative presently in common use in the industry, were tested for activity by incubating for the times indicated in the table below with Alicyclobacillus acidoterrestris (JCM catalogue number 21547, IAM Culture Collection no. 15086) in apple juice. The minimum inhibitory concentration (MIC) was determined by optical density measurements at 600 nm, and by counting colony forming units (CFU) as follows: after four days of incubation at 37° C., juice samples were serially diluted in 10-fold increments (10-fold, 100-fold, 1000-fold, etc.) and plated on Potato Dextrose Agar (PDA). Plates were incubated at 45° C. for at least 48 hours, and colonies were counted to determine CFU/ml.

Setting [1] is: 48 h, 2 days of incubation, read-out: MIC (μg/ml) in 100% apple juice 2 days of incubation.
[2] abbreviates: 72 h, 3 days of incubation, read-out: MIC (μg/ml) in 100% apple juice 3 days of incubation.
The mark [3] stands for this setting: 120 h, 5 days of incubation, read-out: MIC (μg/ml) in 100% apple juice 5 days of incubation.
The mark [4] stands for this setting: 168 h, 7 days of incubation, read-out: MIC (μg/ml) in 100% apple juice 7 days of incubation.

On to `CC1=CCC[C@@H]2[C@@](C)(CC/C(C)=C/C(=O)O)[C@H](C)CC[C@@]12C` (single isomer, unassigned) [Sample 6, Kolavenic acid], for which the MIC reads like this: under setting [1], 1.25 µg/mL (≈ 4.11 µM); under setting [2], 1.25 µg/mL (≈ 4.11 µM); under setting [3], 1.25 µg/mL (≈ 4.11 µM); under setting [4], 1.25 µg/mL (≈ 4.11 µM).

As for `C=C1CC[C@@H]2C(C)(C)CCC[C@@]2(C)[C@@H]1CC/C(C)=C/C(=O)O` (single isomer, unassigned) [Sample 7, copalic acid], the MIC under setting [1] worked out at 1.25 µg/mL (≈ 4.11 µM), the MIC under setting [2] was determined as 1.25 µg/mL (≈ 4.11 µM), the MIC under setting [3] was 1.25 µg/mL (≈ 4.11 µM) and the MIC under setting [4] worked out at 1.25 µg/mL (≈ 4.11 µM).

Turning to `CC(=O)OC1CC2(C)C(C(=O)O)=CCCC2C(C)(CCc2ccoc2)C1C` (stereo not drawn) [Sample 3, 7-α-acetoxyhardwickiic acid], where the note is “2 days of incubation”, the “MIC (μg/ml) in 100% apple juice 2 days of incubation” value was found to be 2.5 µg/mL. In addition, the “MIC (μg/ml) in 100% apple juice 3 days of incubation” value (3 days of incubation) was 5 µg/mL. For the same molecule, the “MIC (μg/ml) in 100% apple juice 5 days of incubation” value (5 days of incubation) came out at 5 µg/mL. Moreover, the “MIC (μg/ml) in 100% apple juice 7 days of incubation” value (7 days of incubation) is 5 µg/mL.
